Here are results for 5 molecules from ChEMBL document CHEMBL1201862, “PubChem BioAssay data set” (2004).

Structures are written as SMILES. The source made the active and inactive calls.

Experiment [1] has as its target Envelope glycoprotein gp160 (Human immunodeficiency virus 1, UniProt Q6QLK5). In words: cell-free HIV fusion peptide-binding blockers – biochemical, uHTS, fluorescence dequenching, […] (AID 1986).
In experiment [2] the target is T1, Fatty acid synthase (Homo sapiens, UniProt P49327). In words: inhibition of human FAS-TE enzyme activity – biochemical, endpoint fluorescence intensity, uHTS hits, dose response (AID 624327).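 Also: fluorescence from hydrolysis of an O-methyl fluorescein acyl ester substrate by the enzyme.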 In kind it is functional.
T1 sequence (P49327 whole entry): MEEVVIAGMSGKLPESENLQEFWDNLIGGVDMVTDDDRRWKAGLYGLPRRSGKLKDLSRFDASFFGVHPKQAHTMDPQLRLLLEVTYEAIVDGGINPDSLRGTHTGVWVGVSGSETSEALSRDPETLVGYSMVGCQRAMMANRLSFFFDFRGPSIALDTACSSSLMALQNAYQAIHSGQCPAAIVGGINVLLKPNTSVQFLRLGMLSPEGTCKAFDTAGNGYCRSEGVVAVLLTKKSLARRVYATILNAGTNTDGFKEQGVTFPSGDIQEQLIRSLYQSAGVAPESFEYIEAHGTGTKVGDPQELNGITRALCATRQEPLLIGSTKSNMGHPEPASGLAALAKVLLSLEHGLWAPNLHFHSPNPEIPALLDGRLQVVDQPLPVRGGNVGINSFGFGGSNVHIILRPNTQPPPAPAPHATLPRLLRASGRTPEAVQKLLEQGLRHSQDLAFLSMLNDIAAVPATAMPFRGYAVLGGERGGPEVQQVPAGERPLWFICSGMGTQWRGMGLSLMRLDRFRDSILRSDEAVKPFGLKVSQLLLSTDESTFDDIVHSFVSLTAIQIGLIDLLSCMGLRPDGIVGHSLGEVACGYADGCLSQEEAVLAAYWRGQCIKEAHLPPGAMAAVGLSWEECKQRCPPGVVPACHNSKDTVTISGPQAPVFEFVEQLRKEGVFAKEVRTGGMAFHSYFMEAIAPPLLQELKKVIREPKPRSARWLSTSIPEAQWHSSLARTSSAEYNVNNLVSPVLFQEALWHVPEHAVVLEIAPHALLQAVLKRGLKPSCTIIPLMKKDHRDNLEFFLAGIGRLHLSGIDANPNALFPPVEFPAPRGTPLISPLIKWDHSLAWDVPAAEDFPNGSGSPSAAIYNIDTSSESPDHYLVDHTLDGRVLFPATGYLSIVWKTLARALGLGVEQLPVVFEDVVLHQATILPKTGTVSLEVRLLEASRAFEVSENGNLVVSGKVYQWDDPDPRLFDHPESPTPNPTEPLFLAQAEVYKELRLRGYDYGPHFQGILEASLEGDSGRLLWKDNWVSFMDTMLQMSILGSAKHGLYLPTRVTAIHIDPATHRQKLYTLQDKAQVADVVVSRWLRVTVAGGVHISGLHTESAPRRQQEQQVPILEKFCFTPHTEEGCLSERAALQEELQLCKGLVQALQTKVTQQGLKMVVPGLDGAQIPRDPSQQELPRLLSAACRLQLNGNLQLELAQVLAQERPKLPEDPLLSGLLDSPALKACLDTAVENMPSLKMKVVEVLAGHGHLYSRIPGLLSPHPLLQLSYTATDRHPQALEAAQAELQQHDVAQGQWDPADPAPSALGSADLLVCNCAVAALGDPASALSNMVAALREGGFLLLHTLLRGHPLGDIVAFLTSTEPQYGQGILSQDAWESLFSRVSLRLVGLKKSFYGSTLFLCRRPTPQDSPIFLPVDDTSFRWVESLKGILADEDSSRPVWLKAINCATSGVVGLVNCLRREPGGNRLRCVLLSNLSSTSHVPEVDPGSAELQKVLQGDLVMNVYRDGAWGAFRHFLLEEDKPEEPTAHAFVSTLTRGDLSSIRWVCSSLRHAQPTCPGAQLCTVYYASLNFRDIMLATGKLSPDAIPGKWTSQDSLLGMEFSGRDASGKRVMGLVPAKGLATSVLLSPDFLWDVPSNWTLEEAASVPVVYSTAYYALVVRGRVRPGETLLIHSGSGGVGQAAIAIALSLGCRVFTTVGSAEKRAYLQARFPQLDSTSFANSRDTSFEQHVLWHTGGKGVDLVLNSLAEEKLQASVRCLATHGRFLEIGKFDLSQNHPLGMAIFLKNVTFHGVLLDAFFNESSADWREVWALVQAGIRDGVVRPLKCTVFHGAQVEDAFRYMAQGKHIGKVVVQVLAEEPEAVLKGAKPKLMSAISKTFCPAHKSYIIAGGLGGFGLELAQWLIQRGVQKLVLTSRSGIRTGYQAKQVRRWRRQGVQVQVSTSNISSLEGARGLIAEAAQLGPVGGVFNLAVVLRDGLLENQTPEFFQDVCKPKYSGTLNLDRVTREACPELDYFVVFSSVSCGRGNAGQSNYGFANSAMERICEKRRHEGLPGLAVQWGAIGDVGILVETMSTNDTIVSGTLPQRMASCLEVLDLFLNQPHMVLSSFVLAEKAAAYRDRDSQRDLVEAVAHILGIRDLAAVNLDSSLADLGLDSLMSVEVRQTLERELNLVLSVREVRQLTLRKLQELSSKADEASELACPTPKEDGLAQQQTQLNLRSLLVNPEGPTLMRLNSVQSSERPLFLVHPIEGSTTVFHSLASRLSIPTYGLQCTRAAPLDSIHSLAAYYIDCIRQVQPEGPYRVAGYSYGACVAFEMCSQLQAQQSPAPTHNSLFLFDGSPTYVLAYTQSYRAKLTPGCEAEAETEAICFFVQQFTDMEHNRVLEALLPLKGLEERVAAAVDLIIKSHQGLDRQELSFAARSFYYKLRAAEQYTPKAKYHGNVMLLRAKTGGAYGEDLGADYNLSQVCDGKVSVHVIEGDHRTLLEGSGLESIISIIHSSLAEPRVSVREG
Experiment [3] addresses T2, Aminopeptidase N (Plasmodium falciparum FcB1/Columbia, UniProt O96935).
T2 sequence (O96935 whole entry): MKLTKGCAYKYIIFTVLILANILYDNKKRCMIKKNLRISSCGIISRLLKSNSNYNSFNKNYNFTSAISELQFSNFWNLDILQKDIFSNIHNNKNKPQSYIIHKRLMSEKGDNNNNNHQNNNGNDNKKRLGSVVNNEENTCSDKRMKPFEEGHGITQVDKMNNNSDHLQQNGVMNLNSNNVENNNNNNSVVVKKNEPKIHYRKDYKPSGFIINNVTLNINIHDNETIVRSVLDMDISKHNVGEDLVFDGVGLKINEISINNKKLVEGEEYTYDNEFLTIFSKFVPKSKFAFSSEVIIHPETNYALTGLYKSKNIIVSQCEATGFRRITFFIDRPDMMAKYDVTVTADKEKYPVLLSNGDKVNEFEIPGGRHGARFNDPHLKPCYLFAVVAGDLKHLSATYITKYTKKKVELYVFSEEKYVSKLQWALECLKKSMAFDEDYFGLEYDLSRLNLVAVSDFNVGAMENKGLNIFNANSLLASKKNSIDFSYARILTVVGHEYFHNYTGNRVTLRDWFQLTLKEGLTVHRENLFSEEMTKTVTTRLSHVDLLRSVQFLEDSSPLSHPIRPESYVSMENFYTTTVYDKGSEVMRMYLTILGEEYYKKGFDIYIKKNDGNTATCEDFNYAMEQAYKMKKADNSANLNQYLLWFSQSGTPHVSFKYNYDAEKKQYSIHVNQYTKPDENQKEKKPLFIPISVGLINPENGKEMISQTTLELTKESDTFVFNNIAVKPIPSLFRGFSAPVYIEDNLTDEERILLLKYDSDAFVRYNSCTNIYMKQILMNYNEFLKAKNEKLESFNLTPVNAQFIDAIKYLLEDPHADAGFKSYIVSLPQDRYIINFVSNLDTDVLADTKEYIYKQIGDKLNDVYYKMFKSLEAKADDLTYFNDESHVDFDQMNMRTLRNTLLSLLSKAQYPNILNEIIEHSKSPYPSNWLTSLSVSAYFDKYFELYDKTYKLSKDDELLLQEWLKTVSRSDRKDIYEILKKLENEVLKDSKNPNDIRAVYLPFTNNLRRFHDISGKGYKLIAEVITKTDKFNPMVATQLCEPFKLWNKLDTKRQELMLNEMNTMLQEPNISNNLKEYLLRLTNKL
In words: malaria alanyl aminopeptidase activity blockers – biochemical, fluorogenic H-Leu-NHMec substrate, 1536-well (AID 1445). Details: species or system Plasmodium falciparum 3D7, 3D7.

For experiment [4], the target named is T1, Fatty acid synthase. In words: inhibition of human FAS-TE enzyme activity – biochemical, kinetic fluorescence intensity, dose response (AID 624326).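 Also: rate of fluorescence rise from hydrolysis of a fluorogenic O-methyl fluorescein ester substrate.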 Format: functional.
Experiment [5] deals with Bifunctional protein GlmU (Mycobacterium tuberculosis, UniProt P9WMN3). In words: Inhibitors of Mycobacterial Glucosamine-1-phosphate acetyl transferase (GlmU). Secondary screen. Details: species or system Mycobacterium tuberculosis H37Rv.
The target of experiment [6] is T3, Streptokinase A (Streptococcus pyogenes serotype M1, UniProt P10520).
T3 sequence (P10520 whole entry): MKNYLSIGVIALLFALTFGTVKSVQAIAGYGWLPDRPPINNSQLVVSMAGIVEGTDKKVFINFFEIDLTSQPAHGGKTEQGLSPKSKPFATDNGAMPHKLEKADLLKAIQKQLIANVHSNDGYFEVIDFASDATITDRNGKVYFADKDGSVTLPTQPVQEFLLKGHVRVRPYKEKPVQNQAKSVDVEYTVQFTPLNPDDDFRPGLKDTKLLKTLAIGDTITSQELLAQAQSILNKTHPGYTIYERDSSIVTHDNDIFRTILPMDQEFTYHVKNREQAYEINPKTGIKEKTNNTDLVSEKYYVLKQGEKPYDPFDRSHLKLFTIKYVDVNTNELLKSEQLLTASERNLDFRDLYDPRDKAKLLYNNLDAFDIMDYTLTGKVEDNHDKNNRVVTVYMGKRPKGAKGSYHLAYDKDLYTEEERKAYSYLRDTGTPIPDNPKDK
In words: viability-normalized secreted streptokinase activity reduction – plasminogen activation absorbance, OD405, dose response (AID 1914).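 Also: secreted streptokinase activity via plasminogen activation per viability signal from cell pellet.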 In kind it is functional, Streptococcus pyogenes M1 GAS.

Experiment [7] has as its system Streptococcus. In words: GAS UMAA2166 growth inhibition – luminescence, BacTiterGlo, counter-screen for streptokinase expression inhibitor project, dose response (AID 1915).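 Also: potency for reduction of bacterial viability or growth.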 Format: functional, organism-based.
The test system of experiment [8] is Streptococcus sp. 'group A'. In words: Streptococcus pyogenes SK(-)GAS viability under kanamycin – luminescence, BacTiterGlo, confirmation, counter-screen for streptokinase expression inhibitor project, dose response (AID 1900). Format: functional, organism-based.
Experiment [9] deals with T4, Calpain-2 catalytic subunit (Sus scrofa, UniProt P43367).
T4 sequence (P43367 whole entry): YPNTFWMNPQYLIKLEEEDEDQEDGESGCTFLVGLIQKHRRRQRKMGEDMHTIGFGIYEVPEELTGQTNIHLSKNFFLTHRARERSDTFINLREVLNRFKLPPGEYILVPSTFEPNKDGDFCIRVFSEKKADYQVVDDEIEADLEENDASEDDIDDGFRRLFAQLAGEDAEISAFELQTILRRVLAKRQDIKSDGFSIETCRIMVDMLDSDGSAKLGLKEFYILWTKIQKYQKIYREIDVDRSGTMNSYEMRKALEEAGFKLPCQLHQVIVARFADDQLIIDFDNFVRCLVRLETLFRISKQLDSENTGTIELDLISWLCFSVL
In words: m-calpain protease blockers, concentration series – biochemical, fluorogenic peptide substrate, dose response (AID 1420). Format: functional.

Experiment [10] addresses T5, Short transient receptor potential channel 4 (Mus musculus, UniProt Q9QUQ5).
T5 sequence (Q9QUQ5 whole entry): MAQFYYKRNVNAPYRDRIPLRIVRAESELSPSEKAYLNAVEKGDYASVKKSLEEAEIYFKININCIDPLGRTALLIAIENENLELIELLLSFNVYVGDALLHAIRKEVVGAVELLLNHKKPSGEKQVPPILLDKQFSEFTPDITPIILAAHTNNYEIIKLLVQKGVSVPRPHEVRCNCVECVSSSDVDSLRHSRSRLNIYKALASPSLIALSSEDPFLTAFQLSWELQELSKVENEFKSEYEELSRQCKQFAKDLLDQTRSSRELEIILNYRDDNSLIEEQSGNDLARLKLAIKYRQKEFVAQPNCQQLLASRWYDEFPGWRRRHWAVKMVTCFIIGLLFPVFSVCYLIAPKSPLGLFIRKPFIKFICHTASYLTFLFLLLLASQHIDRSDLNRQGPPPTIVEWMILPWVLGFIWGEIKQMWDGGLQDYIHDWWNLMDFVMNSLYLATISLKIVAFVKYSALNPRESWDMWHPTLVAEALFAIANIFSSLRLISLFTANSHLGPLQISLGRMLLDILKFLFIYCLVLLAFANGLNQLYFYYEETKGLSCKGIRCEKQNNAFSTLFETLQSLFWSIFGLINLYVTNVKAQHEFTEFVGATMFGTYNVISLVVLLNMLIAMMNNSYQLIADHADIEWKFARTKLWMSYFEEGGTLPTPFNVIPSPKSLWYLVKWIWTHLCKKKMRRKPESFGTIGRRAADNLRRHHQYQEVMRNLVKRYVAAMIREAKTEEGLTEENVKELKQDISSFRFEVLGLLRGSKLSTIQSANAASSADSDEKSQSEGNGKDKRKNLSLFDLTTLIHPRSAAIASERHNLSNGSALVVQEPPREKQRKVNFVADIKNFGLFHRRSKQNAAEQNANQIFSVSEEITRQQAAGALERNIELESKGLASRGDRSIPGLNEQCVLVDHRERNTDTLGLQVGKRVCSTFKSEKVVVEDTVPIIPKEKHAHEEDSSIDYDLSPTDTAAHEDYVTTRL
In words: potentiation of DAMGO-evoked TRPC4 calcium signal – cell-based, HEK293 TRPC4/mu-opioid, Fluo-4 calcium, EC20 DAMGO, dose response (AID 434941).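 Also: HEK293 cells coexpressing TRPC4 and mu opioid receptor stimulated by EC20 DAMGO.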 In kind it is functional.

The target in experiment [11] is T6, Hexokinase HKDC1 (Homo sapiens, UniProt Q2TB90).
T6 sequence (Q2TB90 whole entry): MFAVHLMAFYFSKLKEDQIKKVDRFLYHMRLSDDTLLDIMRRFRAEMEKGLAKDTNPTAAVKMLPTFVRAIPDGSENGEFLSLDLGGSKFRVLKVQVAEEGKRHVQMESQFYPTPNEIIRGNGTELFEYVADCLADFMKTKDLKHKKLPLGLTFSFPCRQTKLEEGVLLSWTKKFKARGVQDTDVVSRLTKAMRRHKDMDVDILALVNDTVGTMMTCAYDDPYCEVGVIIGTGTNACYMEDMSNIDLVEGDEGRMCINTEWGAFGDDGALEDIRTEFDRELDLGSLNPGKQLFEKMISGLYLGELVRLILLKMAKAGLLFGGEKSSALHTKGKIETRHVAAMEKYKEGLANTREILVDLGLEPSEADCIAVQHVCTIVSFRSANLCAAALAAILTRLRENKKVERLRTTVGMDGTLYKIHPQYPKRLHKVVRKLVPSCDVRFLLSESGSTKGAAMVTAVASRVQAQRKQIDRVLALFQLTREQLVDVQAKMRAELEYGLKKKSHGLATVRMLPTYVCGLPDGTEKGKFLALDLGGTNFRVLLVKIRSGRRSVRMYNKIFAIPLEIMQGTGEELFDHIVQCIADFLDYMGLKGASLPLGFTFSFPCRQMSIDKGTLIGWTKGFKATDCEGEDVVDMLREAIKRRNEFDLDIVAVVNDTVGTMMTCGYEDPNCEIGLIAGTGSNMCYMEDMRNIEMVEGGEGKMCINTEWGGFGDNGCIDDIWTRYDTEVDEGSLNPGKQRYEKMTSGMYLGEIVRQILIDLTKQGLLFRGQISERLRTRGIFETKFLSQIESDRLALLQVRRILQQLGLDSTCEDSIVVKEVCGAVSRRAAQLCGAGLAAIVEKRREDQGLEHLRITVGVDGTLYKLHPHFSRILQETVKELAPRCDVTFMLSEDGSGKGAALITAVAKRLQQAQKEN
In words: inhibition of HKDC1 glucose phosphorylation – biochemical, W721R variant, dose response (AID 504729). In kind it is functional.

Experiment [12] has as its target Hexokinase-1 (Homo sapiens, UniProt P19367). In words: HK1 enzyme activation by HKDC1 hits – biochemical, selectivity assay for HKDC1 activator project, dose response (AID 504762). Format: functional.
Experiment [13] has as its system Vero. In words: host cell viability loss, Vero E6 – synthesized analogs, cytotoxicity control for West Nile virus antiviral project, SAR follow-up (AID 2244). Format: functional. The conditions noted are these: Chlorocebus sabaeus.
Experiment [14] relates to Vero. In words: inhibition of WNV-induced cytopathic effect – cell-based, CPE readout (AID 1621). To be noted: Chlorocebus sabaeus. In kind it is functional.
Experiment [15] can be described thus: Luminescence Cell-Based Dose Retest to Confirm Inhibitors of Cancer Stem Cells. [Related pubchem assays (depositor defined):AID2717, AID2721]. Format: functional. To be noted: Homo sapiens.
Experiment [16] concerns Vero. In words: antiviral protection of cells from WNV – synthesized analogs, SAR follow-up (AID 2238). Format: functional, cell-based. The conditions noted are these: Chlorocebus sabaeus.
Experiment [17] addresses Hexokinase (Trypanosoma brucei, UniProt Q38C41). In words: Confirmation assay for inhibitors of Trypanosoma brucei hexokinase 1-Analogue-first series. [Related pubchem assays (depositor defined):AID1430, AID1632, AID2516, AID2560, AID2579, AID2600, AID449725, AID492951]. Format: functional.
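For AC50 in this document: cells exposed to compound for roughly 70 hours or longer before luminescence read.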

Sequence of Hexokinase-1 (P19367 whole entry): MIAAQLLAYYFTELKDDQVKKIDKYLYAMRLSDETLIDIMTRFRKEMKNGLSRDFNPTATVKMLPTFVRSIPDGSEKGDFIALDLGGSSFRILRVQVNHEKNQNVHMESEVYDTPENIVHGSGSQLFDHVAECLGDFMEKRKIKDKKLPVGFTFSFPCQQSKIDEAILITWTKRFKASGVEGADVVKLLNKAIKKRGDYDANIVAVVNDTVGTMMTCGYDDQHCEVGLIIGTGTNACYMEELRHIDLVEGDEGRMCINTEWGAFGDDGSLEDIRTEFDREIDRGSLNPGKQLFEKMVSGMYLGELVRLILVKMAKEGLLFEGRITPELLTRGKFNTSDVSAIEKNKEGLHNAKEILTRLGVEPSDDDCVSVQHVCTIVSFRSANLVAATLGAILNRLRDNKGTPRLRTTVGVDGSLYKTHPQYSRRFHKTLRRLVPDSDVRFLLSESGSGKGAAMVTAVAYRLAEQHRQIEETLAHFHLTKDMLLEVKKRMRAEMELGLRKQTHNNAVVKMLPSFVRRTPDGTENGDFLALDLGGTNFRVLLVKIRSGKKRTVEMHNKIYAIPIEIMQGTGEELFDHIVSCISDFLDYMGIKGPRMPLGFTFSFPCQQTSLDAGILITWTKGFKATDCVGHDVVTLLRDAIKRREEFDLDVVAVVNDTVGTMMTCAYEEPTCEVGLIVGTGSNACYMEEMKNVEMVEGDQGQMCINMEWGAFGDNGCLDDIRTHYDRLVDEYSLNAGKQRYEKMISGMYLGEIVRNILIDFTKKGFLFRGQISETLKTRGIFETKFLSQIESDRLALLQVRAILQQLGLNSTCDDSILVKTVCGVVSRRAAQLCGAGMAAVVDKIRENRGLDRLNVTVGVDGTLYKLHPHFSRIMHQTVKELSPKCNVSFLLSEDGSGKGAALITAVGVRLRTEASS
Sequence of Envelope glycoprotein gp160 (Q6QLK5 whole entry, the tested form may be a part): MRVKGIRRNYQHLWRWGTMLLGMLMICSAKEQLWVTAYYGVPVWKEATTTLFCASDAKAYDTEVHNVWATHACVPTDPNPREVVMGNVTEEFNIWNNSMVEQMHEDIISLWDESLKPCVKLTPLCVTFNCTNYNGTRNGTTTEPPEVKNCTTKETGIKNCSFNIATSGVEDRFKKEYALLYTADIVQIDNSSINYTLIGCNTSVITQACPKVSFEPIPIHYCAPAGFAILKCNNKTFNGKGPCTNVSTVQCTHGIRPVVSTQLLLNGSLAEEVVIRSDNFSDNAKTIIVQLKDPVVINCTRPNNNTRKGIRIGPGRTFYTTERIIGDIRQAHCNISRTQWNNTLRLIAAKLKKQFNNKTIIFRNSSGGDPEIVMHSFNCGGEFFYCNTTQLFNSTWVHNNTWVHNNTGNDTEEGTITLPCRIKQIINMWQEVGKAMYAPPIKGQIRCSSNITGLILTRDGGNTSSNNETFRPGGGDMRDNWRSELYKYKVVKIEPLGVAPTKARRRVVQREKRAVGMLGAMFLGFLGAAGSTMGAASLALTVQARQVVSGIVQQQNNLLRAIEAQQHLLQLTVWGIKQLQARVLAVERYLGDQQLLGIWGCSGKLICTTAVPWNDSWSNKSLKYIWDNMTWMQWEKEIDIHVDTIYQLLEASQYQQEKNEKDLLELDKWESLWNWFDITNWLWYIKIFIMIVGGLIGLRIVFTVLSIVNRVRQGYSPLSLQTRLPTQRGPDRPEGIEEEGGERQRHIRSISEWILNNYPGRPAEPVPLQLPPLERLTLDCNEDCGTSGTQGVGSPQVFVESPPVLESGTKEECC
Sequence of Hexokinase (Q38C41 whole entry): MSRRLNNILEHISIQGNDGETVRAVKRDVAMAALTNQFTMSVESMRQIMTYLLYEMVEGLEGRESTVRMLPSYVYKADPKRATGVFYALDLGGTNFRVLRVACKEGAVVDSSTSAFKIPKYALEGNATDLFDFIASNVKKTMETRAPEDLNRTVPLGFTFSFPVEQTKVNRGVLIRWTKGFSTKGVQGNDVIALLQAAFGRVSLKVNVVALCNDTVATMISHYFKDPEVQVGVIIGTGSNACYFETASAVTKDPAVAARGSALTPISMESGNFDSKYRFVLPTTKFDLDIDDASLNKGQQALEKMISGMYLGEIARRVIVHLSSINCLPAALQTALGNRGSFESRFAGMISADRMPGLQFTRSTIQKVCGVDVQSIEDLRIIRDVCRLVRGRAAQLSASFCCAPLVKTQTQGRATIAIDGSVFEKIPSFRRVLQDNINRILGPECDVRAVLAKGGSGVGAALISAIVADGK

As usually defined, the IC50 is the midpoint of a concentration-inhibition curve. Usually EC50 stands for the concentration needed to bring the measured effect to its halfway point. In the case of `O=c1c(C(c2ccc([N+](=O)[O-])cc2)c2c(O)oc3ccccc3c2=O)c(O)oc2ccccc12`, the concentration for half-maximal inhibition (IC50) was 13.8 µM (active) in experiment [1]; 4.65 µM (active) in experiment [2]; 34 µM (active) in experiment [3]; 3.67 µM (active) in [4]; 122 µM (active) in experiment [5]; 7.83 µM (active) in experiment [9]. The EC50 in [6] is 13.4 µM (active); in experiment [7] it was 102 µM (active); in [8], 8.09 µM (active).
Regarding `CN(C)CCOc1cc(Cl)cc(Cl)c1`, in experiment [10], the EC50 was 0.67 µM (active).
`O=C(CN(C(=O)CCC(=O)Nc1ccccn1)c1ccc2c(c1)OCO2)NCc1ccc(F)cc1`: the IC50 in experiment [11] is > 80 µM (inactive). For the same molecule, in experiment [12], the EC50 was > 80 µM (inactive).
For orientation: CC50 means the concentration at which the toxic effect on the cells reaches its halfway point. Broadly, the AC50 is the concentration at which the activity in the assay is half-maximal. On to `CCN(CC)CCCN=C(S)N1CCN(c2nc(-c3ccccc3)cs2)CC1`, for which the CC50 in [13] was 15.3 µM (active). The IC50 is > 100 µM (active) in experiment [14] and 17.3 µM (active) in [16]. The AC50 in experiment [15] is 3.77 µM (active).
As for `CC(C)c1ccc(C(=O)Nc2cc(Cl)ccc2C(=O)O)cc1`, in [17], the IC50 was 2.89 µM (active).
